{
  "source": "ChEMBL document CHEMBL1201862",
  "about": "“PubChem BioAssay data set” (2004)",
  "key": {"Insulin-degrading enzyme [1]": {"biological_target": "T1, Insulin-degrading enzyme (Homo sapiens, UniProt P14735)", "T1 sequence (P14735 whole entry)": "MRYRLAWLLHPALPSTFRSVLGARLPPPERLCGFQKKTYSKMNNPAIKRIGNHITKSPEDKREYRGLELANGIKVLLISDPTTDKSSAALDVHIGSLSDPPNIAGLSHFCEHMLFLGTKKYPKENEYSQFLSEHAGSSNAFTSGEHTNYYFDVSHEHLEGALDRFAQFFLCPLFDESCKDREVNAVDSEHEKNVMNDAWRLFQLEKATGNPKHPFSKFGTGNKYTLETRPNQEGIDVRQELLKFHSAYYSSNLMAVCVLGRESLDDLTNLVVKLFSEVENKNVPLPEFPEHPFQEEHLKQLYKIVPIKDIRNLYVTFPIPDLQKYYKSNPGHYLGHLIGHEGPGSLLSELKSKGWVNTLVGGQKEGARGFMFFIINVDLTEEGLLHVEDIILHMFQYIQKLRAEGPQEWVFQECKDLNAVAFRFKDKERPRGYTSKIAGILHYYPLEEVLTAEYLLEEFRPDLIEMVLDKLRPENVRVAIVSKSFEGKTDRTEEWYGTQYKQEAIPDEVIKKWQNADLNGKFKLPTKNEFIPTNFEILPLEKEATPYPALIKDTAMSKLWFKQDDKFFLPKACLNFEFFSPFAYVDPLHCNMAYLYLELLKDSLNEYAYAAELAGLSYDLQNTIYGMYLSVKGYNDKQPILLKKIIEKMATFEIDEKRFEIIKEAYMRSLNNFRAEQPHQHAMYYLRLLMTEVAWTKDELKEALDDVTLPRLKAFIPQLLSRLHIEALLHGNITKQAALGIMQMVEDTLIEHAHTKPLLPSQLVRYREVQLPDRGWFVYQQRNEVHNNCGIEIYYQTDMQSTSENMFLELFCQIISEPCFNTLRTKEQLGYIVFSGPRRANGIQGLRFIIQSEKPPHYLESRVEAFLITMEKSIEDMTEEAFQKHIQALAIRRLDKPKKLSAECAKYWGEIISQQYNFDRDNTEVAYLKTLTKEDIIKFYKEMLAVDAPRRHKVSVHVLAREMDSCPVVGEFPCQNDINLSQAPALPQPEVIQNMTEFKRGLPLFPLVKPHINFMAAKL", "assay": "recombinant IDE activation, cell-free – biochemical, fluorescence polarization, counter-screen for IDE activator project, dose response (AID 588681)"}, "Insulin-degrading enzyme [2]": {"biological_target": "T1, Insulin-degrading enzyme", "assay": "cellular IDE activation of Abeta substrate cleavage – fluorescence polarization, HEK cells, dose response (AID 588439)", "assay_type": "functional, cell-based"}, "HEK293 [3]": {"tested_on": "HEK293", "assay": "membrane integrity loss in HEK cells – cell-based, fluorescence, cytotoxicity control for IDE activator project, dose response (AID 588440);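 note: cytotoxicity by LDH release measuring loss of membrane integrity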", "assay_type": "functional", "conditions": "Homo sapiens"}, "HEK293 [4]": {"tested_on": "HEK293", "assay": "optical interference in Abeta FP readout, dose response, artefact control for IDE activator project, biochemical, fluorescence polarization (AID 588442)", "assay_type": "functional, cell-based", "conditions": "Homo sapiens"}, "Mu-type opioid receptor": {"biological_target": "Mu-type opioid receptor (Homo sapiens, UniProt P35372)", "sequence (P35372 whole entry)": "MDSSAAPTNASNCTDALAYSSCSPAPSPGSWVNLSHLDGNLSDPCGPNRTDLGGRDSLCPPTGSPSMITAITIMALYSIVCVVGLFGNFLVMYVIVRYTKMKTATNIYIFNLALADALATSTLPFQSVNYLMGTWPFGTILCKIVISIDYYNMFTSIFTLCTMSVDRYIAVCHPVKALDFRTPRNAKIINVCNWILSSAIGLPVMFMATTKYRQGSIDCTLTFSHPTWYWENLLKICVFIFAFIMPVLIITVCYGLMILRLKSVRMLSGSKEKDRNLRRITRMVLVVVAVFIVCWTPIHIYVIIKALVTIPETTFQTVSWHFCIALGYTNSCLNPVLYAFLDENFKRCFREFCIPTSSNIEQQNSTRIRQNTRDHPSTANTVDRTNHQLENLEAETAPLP", "assay_type": "functional, cell-based"}, "[5]": {"biological_target": "5-hydroxytryptamine receptor 2A (Mus musculus, UniProt P35363)", "sequence (P35363 whole entry)": "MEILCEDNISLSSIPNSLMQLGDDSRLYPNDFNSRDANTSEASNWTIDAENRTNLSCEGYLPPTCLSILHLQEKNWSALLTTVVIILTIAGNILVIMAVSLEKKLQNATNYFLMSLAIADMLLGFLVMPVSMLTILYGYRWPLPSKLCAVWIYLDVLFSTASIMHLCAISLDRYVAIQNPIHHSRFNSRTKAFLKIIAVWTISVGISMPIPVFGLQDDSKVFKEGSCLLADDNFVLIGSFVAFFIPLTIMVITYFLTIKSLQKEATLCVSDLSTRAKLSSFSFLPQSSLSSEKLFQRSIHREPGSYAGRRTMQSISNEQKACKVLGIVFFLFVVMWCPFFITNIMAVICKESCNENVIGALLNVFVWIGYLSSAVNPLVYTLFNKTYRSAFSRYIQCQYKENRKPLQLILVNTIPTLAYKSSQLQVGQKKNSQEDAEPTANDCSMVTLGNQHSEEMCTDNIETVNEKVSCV", "assay_type": "functional, cell-based"}, "[6]": {"biological_target": "Voltage-gated inwardly rectifying potassium channel KCNH2 (Homo sapiens, UniProt Q12809)", "sequence (Q12809 whole entry)": "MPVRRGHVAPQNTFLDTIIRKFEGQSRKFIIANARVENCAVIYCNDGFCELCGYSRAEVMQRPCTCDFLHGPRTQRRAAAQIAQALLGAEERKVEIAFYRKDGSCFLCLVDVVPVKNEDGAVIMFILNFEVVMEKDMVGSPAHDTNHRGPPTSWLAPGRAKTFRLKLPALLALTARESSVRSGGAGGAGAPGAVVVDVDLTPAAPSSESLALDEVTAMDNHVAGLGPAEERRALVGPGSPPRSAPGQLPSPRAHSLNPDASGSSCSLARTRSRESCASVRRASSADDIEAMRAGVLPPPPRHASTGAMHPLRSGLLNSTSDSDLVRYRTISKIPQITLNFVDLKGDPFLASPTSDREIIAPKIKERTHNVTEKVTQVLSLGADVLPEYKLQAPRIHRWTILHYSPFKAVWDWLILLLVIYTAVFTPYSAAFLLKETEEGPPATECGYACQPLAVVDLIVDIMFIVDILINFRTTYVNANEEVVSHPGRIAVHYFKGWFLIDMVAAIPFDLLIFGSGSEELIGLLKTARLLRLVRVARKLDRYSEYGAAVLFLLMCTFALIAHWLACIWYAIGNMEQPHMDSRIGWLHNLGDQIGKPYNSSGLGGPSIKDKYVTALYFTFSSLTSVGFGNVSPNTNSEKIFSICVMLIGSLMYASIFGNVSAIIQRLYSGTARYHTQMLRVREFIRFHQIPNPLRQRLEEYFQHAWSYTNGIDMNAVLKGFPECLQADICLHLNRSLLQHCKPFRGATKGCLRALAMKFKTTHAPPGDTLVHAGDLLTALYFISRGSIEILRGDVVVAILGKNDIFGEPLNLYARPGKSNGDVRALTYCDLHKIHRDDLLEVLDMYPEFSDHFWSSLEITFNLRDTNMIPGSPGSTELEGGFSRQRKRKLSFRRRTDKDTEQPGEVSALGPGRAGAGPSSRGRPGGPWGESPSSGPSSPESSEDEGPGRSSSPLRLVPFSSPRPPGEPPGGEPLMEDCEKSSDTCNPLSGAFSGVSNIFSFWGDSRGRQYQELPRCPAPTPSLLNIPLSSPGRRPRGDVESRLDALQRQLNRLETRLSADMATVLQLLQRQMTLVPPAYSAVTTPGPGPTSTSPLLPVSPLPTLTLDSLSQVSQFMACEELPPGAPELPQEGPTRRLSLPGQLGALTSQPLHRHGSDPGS", "conditions": "Potency"}, "[7]": {"biological_target": "T2, Calpain-2 catalytic subunit (Sus scrofa, UniProt P43367)", "T2 sequence (P43367 whole entry)": "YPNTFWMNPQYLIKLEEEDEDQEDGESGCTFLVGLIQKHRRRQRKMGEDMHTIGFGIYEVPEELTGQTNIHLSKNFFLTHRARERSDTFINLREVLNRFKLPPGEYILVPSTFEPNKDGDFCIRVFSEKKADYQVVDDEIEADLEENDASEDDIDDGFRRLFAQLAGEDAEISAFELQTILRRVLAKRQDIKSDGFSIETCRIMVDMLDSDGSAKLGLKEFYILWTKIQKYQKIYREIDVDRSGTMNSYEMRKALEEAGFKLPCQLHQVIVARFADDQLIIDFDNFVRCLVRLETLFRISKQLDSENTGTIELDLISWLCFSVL", "assay": "m-calpain protease blockers, concentration series – biochemical, fluorogenic peptide substrate, dose response (AID 1420)", "assay_type": "functional"}, "Cysteine protease ATG4B": {"biological_target": "Cysteine protease ATG4B (Homo sapiens, UniProt Q9Y4P1)", "sequence (Q9Y4P1 whole entry)": "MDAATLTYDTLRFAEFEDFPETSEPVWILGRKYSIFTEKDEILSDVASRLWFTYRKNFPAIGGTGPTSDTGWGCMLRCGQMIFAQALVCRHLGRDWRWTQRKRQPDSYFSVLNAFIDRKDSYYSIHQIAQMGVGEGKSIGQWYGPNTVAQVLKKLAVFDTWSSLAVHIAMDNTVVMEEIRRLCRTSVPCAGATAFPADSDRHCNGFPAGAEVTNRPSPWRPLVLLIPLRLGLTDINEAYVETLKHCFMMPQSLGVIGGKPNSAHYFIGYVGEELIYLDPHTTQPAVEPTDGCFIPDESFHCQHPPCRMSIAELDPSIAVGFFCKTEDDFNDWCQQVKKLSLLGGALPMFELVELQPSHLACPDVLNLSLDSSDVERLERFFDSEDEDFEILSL", "assay_type": "functional"}, "Phospholipase A2": {"biological_target": "Phospholipase A2 (Homo sapiens, UniProt P04054)", "sequence (P04054 whole entry)": "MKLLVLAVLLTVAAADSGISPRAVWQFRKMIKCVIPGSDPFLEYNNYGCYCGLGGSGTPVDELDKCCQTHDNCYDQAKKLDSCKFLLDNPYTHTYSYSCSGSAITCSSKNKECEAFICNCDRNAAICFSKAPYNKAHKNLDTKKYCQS", "assay_type": "functional"}, "[8]": {"biological_target": "Beta-2 adrenergic receptor (Homo sapiens, UniProt P07550)", "sequence (P07550 whole entry)": "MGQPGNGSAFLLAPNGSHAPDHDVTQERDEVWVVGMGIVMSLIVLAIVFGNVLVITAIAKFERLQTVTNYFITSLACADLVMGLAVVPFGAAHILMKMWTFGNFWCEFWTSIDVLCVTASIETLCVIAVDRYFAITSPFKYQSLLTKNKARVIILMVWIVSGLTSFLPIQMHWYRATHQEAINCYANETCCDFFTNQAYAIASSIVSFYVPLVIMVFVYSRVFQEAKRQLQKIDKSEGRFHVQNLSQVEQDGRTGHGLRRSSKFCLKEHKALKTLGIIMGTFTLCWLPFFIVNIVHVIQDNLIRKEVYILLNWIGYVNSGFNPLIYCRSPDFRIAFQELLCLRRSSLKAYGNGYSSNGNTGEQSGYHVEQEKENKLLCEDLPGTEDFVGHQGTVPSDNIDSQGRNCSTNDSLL", "assay": "ADRB2 activation measured by internalization – cell-based, FAP fluorogen, flow cytometry, cherry pick 1, dose response (AID 588763)", "assay_type": "functional"}, "[9]": {"assay": "NIH-3T3 fibroblast cytotoxicity, dose response, cytotoxicity control, cell-based, fluorescence, Alamar Blue, secondary assay (AID 2327);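 note: NIH-3T3 mouse fibroblasts cultured with fluconazole at 8 µg/mL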", "assay_type": "functional"}, "[10]": {"assay": "fluconazole-exposed Candida albicans growth modulators – fluorescence, retest, confirmation (AID 2467)", "assay_type": "functional, cell-based"}, "[11]": {"assay": "Luminescence Cell-Based Dose Retest to Confirm Inhibitors of Cancer Stem Cells. [Related pubchem assays (depositor defined):AID2717, AID2721]", "assay_type": "functional", "conditions": "Homo sapiens"}, "HEK293 [12]": {"tested_on": "HEK293", "assay": "cells", "assay_type": "functional, cell-based", "conditions": "Homo sapiens"}, "[13]": {"biological_target": "T3, Nuclear receptor subfamily 0 group B member 1 (Homo sapiens, UniProt P51843)", "T3 sequence (P51843 whole entry)": "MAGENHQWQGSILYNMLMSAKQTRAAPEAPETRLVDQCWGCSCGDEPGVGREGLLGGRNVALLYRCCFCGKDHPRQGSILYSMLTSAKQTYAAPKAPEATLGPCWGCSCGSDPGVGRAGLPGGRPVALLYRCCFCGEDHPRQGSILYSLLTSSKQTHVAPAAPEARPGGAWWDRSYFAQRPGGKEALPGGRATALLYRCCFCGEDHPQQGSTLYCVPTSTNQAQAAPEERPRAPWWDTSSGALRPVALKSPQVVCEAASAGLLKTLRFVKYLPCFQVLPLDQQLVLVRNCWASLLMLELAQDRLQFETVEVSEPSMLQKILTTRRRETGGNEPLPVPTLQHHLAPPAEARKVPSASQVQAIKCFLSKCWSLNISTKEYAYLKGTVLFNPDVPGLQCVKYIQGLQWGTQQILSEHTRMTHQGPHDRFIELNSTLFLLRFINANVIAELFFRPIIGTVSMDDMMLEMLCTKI", "assay": "Luminescence-based cell-based high throughput dose response assay for inhibitors of the orphan nuclear receptor subfamily 0, group B, member 1 (DAX1; NR0B1). [Related pubchem assays (depositor defined):AID504766, AID504790]", "assay_type": "functional"}},
  "note": "Active and inactive are the calls of the source.",
  "data": [
    {"smiles": "Cc1ccc(Cn2nc(C)c(C(=O)N3CCN(S(=O)(=O)/C=C/c4ccccc4)CC3)c2C)cc1", "values": [
      {"measurement": "EC50", "setting": "Insulin-degrading enzyme [1]", "value": "> 54.7 µM (inactive)"},
      {"measurement": "EC50", "setting": "Insulin-degrading enzyme [2]", "value": "> 54.7 µM (inactive)"},
      {"measurement": "IC50", "setting": "HEK293 [3]", "value": "> 89.2 µM (inactive)"},
      {"measurement": "EC50", "setting": "HEK293 [4]", "value": "> 54.7 µM (inactive)"}
    ]},
    {"smiles": "CCCN1CC[C@@H]2c3cc(O)ccc3CC[C@@H]21", "values": [
      {"measurement": "EC50", "setting": "Mu-type opioid receptor", "value": "92.5 µM (inactive)"},
      {"measurement": "EC50", "setting": "[5]", "value": "76.1 µM (inactive)"},
      {"measurement": "AC50", "setting": "[6]", "value": "35.5 µM (inconclusive)"}
    ]},
    {"smiles": "O=C(COC(=O)c1cc(Cl)ccc1[N+](=O)[O-])NCc1ccc(Cl)cc1Cl", "values": [
      {"measurement": "IC50", "setting": "[7]", "value": "6.14 µM (not active)"},
      {"measurement": "IC50", "setting": "Cysteine protease ATG4B", "value": "16.3 µM (active)"},
      {"measurement": "IC50", "setting": "Phospholipase A2", "value": "11.2 µM (active)"}
    ]},
    {"smiles": "CC(C)(C)n1ncc2c(=O)n(Cc3ccccc3Br)cnc21", "values": [
      {"measurement": "IC50", "setting": "Cysteine protease ATG4B", "value": "10.8 µM (active)"},
      {"measurement": "IC50", "setting": "Phospholipase A2", "value": "7.12 µM (active)"}
    ]},
    {"smiles": "CC1CCC(NC(=O)CCS(=O)(=O)c2ccc3c(c2)CCN3C(=O)C2CC2)CC1", "note": "(stereo not drawn)", "values": [
      {"measurement": "EC50", "setting": "[8]", "value": "0.522 µM (active)"}
    ]},
    {"smiles": "Cc1cc(C(=O)NNc2ccc(F)cc2F)no1", "values": [
      {"measurement": "EC50", "setting": "[9]", "value": "2.93 µM (active)"},
      {"measurement": "EC50", "setting": "[10]", "value": "> 38 µM (not active)"},
      {"measurement": "AC50", "setting": "[11]", "value": "1.1 µM (active)"},
      {"measurement": "IC50", "setting": "HEK293 [12]", "value": "> 67.5 µM (inactive)"},
      {"measurement": "IC50", "setting": "[13]", "value": "> 67.5 µM (inactive)"}
    ]}
  ]
}
